These results are taken from US20240101540A1, “TARGETED PROTEIN DEGRADATION OF PARP14 FOR USE IN THERAPY” (Ribon Therapeutics, Inc., priority 2022, published 2024).

Broadly, the DC50 is the concentration giving 50% degradation.

Bounds are passed on as bounds.

This test deals with T1, catalytic domain of human PARP14 (residues 1611 to 1801) with NanoLuc tag (Homo sapiens, UniProt Q460N5).
T1 construct: expressed in transfected cells; host or cells: HEK-293T cells (ATCC), pcDNA3.1(-) vector
T1 sequence (Q460N5 1611-1801): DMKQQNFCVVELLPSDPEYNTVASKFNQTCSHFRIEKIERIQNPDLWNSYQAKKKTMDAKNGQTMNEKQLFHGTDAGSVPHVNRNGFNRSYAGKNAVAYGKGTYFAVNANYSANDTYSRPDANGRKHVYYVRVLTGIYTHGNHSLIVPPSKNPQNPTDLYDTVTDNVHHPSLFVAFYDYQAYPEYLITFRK
Put plainly: NanoLuc assay for the degradation of PARP14 (NanoLuc-tagged PARP14 overexpressed in HEK-293T cells, 2 hours). The class given is cell-based. The following applies: Assay A (Example A): NanoLuc-tagged PARP14 degradation in HEK-293T cells, read-out: DC50.
As to `O=C1CCC(N2C(=O)c3ccc(N4CCC(COc5cc(F)c6c(=O)[nH]c(CSC7CCOCC7)nc6c5)CC4)cc3C2=O)C(=O)N1` (centres unmarked) [Example 23, 2-(2,6-dioxopiperidin-3-yl)-5-(4-(((5-fluoro-4-oxo-2-(((tetrahydro-2H-pyran-4-yl)thio)methyl)-3,4-dihydroquinazolin-7-yl)oxy)methyl)piperidin-1-yl)isoindoline-1,3-dione], the DC50 is under 0.1 µM.
Regarding `O=C1CCC(N2C(=O)c3cccc(NCCOCC(=O)N4CCC(COc5cc(F)c6c(=O)[nH]c(CSC7CCOCC7)nc6c5)CC4)c3C2=O)C(=O)N1` (centres unmarked) [Example 22, 2-(2,6-dioxopiperidin-3-yl)-4-((2-(2-(4-(((5-fluoro-4-oxo-2-(((tetrahydro-2H-pyran-4-yl)thio)methyl)-3,4-dihydroquinazolin-7-yl)oxy)methyl)piperidin-1-yl)-2-oxoethoxy)ethyl)amino)isoindoline-1,3-dione], the 50% degradation concentration (DC50) is under 0.1 µM.
Then `O=C1CCC(Nc2ccc(N3CCN(CCN4CCC(COc5cc(F)c6c(=O)[nH]c(COC7CCOCC7)nc6c5)CC4)CC3)cc2)C(=O)N1` (centres unmarked) [Example 68, 3-((4-(4-(2-(4-(((5-fluoro-4-oxo-2-(((tetrahydro-2H-pyran-4-yl)oxy)methyl)-3,4-dihydroquinazolin-7-yl)oxy)methyl)piperidin-1-yl)ethyl)piperazin-1-yl)phenyl)amino)piperidine-2,6-dione], with under 0.1 µM; and `O=C1CCN(c2ccc(N3CCN(CCN4CCC(COc5cc(F)c6c(=O)[nH]c(CSC7CCOCC7)nc6c5)CC4)CC3)cc2)C(=O)N1` [Example 70, 1-(4-(4-(2-(4-(((5-fluoro-4-oxo-2-(((tetrahydro-2H-pyran-4-yl)thio)methyl)-3,4-dihydroquinazolin-7-yl)oxy)methyl)piperidin-1-yl)ethyl)piperazin-1-yl)phenyl)dihydropyrimidine-2,4(1H,3H)-dione], with under 0.1 µM.
For `O=C1CCC(N2C(=O)c3cccc(NCCCOCCC(=O)N4CCC(COc5cc(F)c6c(=O)[nH]c(CSC7CCOCC7)nc6c5)CC4)c3C2=O)C(=O)N1` (centres unmarked) [Example 10, 2-(2,6-dioxopiperidin-3-yl)-4-((3-(3-(4-(((5-fluoro-4-oxo-2-(((tetrahydro-2H-pyran-4-yl)thio)methyl)-3,4-dihydroquinazolin-7-yl)oxy)methyl)piperidin-1-yl)-3-oxopropoxy)propyl)amino)isoindoline-1,3-dione], the DC50 is under 0.1 µM.
For the compound `O=C1CCC(N2C(=O)c3cccc(NCCC(=O)N4CCC(COc5cc(F)c6c(=O)[nH]c(CSC7CCOCC7)nc6c5)CC4)c3C2=O)C(=O)N1` (centres unmarked) [Example 5, 2-(2,6-dioxopiperidin-3-yl)-4-((3-(4-(((5-fluoro-4-oxo-2-(((tetrahydro-2H-pyran-4-yl)thio)methyl)-3,4-dihydroquinazolin-7-yl)oxy)methyl)piperidin-1-yl)-3-oxopropyl)amino)isoindoline-1,3-dione], the DC50 is under 0.1 µM.
With `O=C1CCC(Nc2ccc(OC3CCN(C4CCC(COc5cc(F)c6c(=O)[nH]c(CSC7CCOCC7)nc6c5)CC4)CC3)cc2)C(=O)N1` (centres unmarked) [Example 87, 3-((4-((1-(4-(((5-fluoro-4-oxo-2-(((tetrahydro-2H-pyran-4-yl)thio)methyl)-3,4-dihydroquinazolin-7-yl)oxy)methyl)cyclohexyl)piperidin-4-yl)oxy)phenyl)amino)piperidine-2,6-dione] the figure was under 0.1 µM; with `O=C1CCC(Nc2ccc(N3C4CCC3CN(CCN3CCC(COc5cc(F)c6c(=O)[nH]c(CSC7CCOCC7)nc6c5)CC3)C4)cc2)C(=O)N1` (centres unmarked) [Example 121], under 0.1 µM.
With `O=C1CCC(N2C(=O)c3cccc(N4CCN(CC5CCN(C(=O)CN6CCC(COc7cc(F)c8c(=O)[nH]c(CSC9CCOCC9)nc8c7)CC6)CC5)CC4)c3C2=O)C(=O)N1` (centres unmarked) [Example 21, 2-(2,6-dioxopiperidin-3-yl)-4-(4-((1-(2-(4-(((5-fluoro-4-oxo-2-(((tetrahydro-2H-pyran-4-yl)thio)methyl)-3,4-dihydroquinazolin-7-yl)oxy)methyl)piperidin-1-yl)acetyl)piperidin-4-yl)methyl)piperazin-1-yl)isoindoline-1,3-dione], the DC50 is under 0.1 µM.
Then `O=C1CCC(Oc2ccc(N3CCN(CCN4CCC(COc5cc(F)c6c(=O)[nH]c(CSC7CCOCC7)nc6c5)CC4)CC3)cc2)C(=O)N1` (centres unmarked) [Example 65, 3-(4-(4-(2-(4-(((5-fluoro-4-oxo-2-(((tetrahydro-2H-pyran-4-yl)thio)methyl)-3,4-dihydroquinazolin-7-yl)oxy)methyl)piperidin-1-yl)ethyl)piperazin-1-yl)phenoxy)piperidine-2,6-dione], with under 0.1 µM; and `Cn1nc(N2CCC(=O)NC2=O)c2ccc(N3CCN(CCN4CCC(COc5cc(F)c6c(=O)[nH]c(CSC7CCOCC7)nc6c5)CC4)CC3)cc21` [Example 75, 1-(6-(4-(2-(4-(((5-fluoro-4-oxo-2-(((tetrahydro-2H-pyran-4-yl)thio)methyl)-3,4-dihydroquinazolin-7-yl)oxy)methyl)piperidin-1-yl)ethyl)piperazin-1-yl)-1-methyl-1H-indazol-3-yl)dihydropyrimidine-2,4(1H,3H)-dione], with under 0.1 µM; and `O=C1CCC(Nc2ccc(N3CC4CCC(C3)N4CCN3CCC(COc4cc(F)c5c(=O)[nH]c(CSC6CCOCC6)nc5c4)CC3)cc2)C(=O)N1` (centres unmarked) [Example 95, 3-((4-(8-(2-(4-(((5-fluoro-4-oxo-2-(((tetrahydro-2H-pyran-4-yl)thio)methyl)-3,4-dihydroquinazolin-7-yl)oxy)methyl)piperidin-1-yl)ethyl)-3,8-diazabicyclo[3.2.1]octan-3-yl)phenyl)amino)piperidine-2,6-dione], with under 0.1 µM.
Then `O=C1CCC(N2C(=O)c3cccc(NC(=O)CN4CCC(COc5cc(F)c6c(=O)[nH]c(CSC7CCOCC7)nc6c5)CC4)c3C2=O)C(=O)N1` (centres unmarked) [Example 26, N-(2-(2,6-dioxopiperidin-3-yl)-1,3-dioxoisoindolin-4-yl)-2-(4-(((5-fluoro-4-oxo-2-(((tetrahydro-2H-pyran-4-yl)thio)methyl)-3,4-dihydroquinazolin-7-yl)oxy)methyl)piperidin-1-yl)acetamide], with under 0.1 µM; and `O=C1CCC(N2C(=O)c3cccc(NCCOCCOCCC(=O)N4CCC(COc5cc(F)c6c(=O)[nH]c(CSC7CCOCC7)nc6c5)CC4)c3C2=O)C(=O)N1` (centres unmarked) [Example 4, 2-(2,6-dioxopiperidin-3-yl)-4-((2-(2-(3-(4-(((5-fluoro-4-oxo-2-(((tetrahydro-2H-pyran-4-yl)thio)methyl)-3,4-dihydroquinazolin-7-yl)oxy)methyl)piperidin-1-yl)-3-oxopropoxy)ethoxy)ethyl)amino)isoindoline-1,3-dione], with under 0.1 µM.
With `O=C1CCC(Nc2ccc(N3CCN(C4CCC(COc5cc(F)c6c(=O)[nH]c(CSC7CCOCC7)nc6c5)CC4)CC3)cc2)C(=O)N1` (centres unmarked) [Example 124] the figure was under 0.1 µM; with `O=C1CCC(Nc2ccc(OC3CC(CN4CCC(COc5cc(F)c6c(=O)[nH]c(CSC7CCN(CC(F)(F)F)CC7)nc6c5)CC4)C3)cc2)C(=O)N1` (centres unmarked) [Example 109], under 0.1 µM.
For `O=C1CCC(Nc2ccc(CN3CCC(N4CCC(COc5cc(F)c6c(=O)[nH]c(CSC7CCOCC7)nc6c5)CC4)CC3)cc2)C(=O)N1` (centres unmarked) [Example 84, 3-((4-((4-(((5-fluoro-4-oxo-2-(((tetrahydro-2H-pyran-4-yl)thio)methyl)-3,4-dihydroquinazolin-7-yl)oxy)methyl)-[1,4′-bipiperidin]-1′-yl)methyl)phenyl)amino)piperidine-2,6-dione], the DC50 was under 0.1 µM.
